Test results as given in article PMC5428418, “Differential expression of chemosensory-protein genes in midguts in response to diet of Spodoptera litura” (Scientific Reports, 2017).
Where two headings read alike, the source gives them in different places.

Assays:
[1] = target: recombinant SlitCSP8 (Spodoptera litura, UniProt A0A0P0EUM0); experiment: Fluorescence competitive binding assay (1-NPN displacement), SlitCSP8; details: for IC50: read-out: IC50 SlitCSP8; for IC50 / IC50 SlitCSP8: competitor's concentration halving the initial fluorescence, protein 2 μM, ligand 0 to 20 μM, 1-NPN probe; for Kd: read-out: Kd SlitCSP8; for Kd / Kd SlitCSP8: dissociation constant of the competitor calculated from IC50: KD = [IC50]/(1 + [1-NPN]/K1-NPN); for binding affinity to SlitCSP8 (in words): competitive binding with 1-NPN
Experimental: The fluorescence spectra were recorded on an F-4500 FL Fluorescence Spectrophotometer (HITACHI) in a 1 cm light path quartz cuvette at 23 °C. The slit width used for excitation and emission was 5 nm. The compounds used to investigate the binding abilities of SlitCSPs were purchased from Sigma-Aldrich with the highest purity and stored as specified instruction by the manufacturer. […] The fluorescent probe N-phenyl-1-naphthylamine (1 − NPN) and all ligands used in competition experiments were dissolved in HPLC purity grade methanol. […] And then, 2 μM of protein was added and titrated with aliquots of 1 mM 1 − NPN to final concentrations of 2 to 20 μM. […] All values reported were obtained from three independent measurements. The corresponding to the maximum fluorescence emission was plotted against the ligand concentrations for the determination of the binding constants. The curves were linearized by Scatchard plots.

[2] = target: recombinant SlitCSP3 (Spodoptera litura, UniProt A0A9J7EMU8); type: binding; details: for binding affinity to SlitCSP3 (in words): competitive binding with 1-NPN
From the text: (§1) The curves were linearized by Scatchard plots.

[3] = target: recombinant SlitCSP11 (Spodoptera litura, UniProt A0A0P0EM27); type: binding; details: for IC50 SlitCSP11: competitor's concentration halving the initial fluorescence, protein 2 μM, ligand 0 to 20 μM, 1-NPN probe; for Kd SlitCSP11: dissociation constant of the competitor calculated from IC50: KD = [IC50]/(1 + [1-NPN]/K1-NPN); for binding affinity to SlitCSP11 (in words): competitive binding with 1-NPN
From the text: as §1

[4] = competitor's concentration halving the initial fluorescence, protein 2 μM, ligand 0 to 20 μM, 1-NPN probe
[5] = dissociation constant of the competitor calculated from IC50: KD = [IC50]/(1 + [1-NPN]/K1-NPN)

recombinant SlitCSP3, sequence (A0A9J7EMU8 entry or part of it): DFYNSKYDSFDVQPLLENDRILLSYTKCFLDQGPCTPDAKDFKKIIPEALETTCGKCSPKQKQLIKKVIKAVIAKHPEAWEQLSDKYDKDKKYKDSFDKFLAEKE
recombinant SlitCSP8, sequence (A0A0P0EUM0 18-128 with tags or gaps limits assumed): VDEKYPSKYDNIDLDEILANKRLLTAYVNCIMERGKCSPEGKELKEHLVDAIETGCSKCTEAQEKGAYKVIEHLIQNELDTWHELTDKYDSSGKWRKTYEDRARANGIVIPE
recombinant SlitCSP11, sequence (A0A0P0EM27 entry or part of it): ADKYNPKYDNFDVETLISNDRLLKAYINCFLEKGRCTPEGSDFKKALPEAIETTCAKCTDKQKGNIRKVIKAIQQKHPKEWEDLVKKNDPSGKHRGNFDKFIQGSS

Row | SMILES | IC50 SlitCSP3 [2, 4] | Kd SlitCSP3 [2, 5] | IC50 SlitCSP8 [1] | Kd SlitCSP8 [1] | binding affinity to SlitCSP8 (in words) [1] | IC50 SlitCSP11 [3] | Kd SlitCSP11 [3] | also measured
1 | S=C=NCCc1ccccc1 [Phenethyl isothiocyanate] | – | – | – | – | – | – | – | IC50 [1]: 4.34 µM; Kd [1]: 6.17 µM
2 | C=Cc1ccccc1 [Styrene] | u.d | u.d | u.d | u.d | – | – | – | –
3 | CC1CCC(C(C)C)C(O)C1 (stereo not shown) [Menthol] | – | – | ud | u.d | – | – | – | –
4 | c1ccncc1 [Pyridine] | – | – | u.d | u.d | – | – | – | IC50 SlitCSP3 [2]: u.d; Kd SlitCSP3 [2]: u.d
5 | NC(=O)c1ccncc1 [Isonicotinamide] | – | – | – | – | at low concentrations | – | – | –
6 | O=Cc1ccco1 [Furan-2-carboxaldehyde] | u.d | u.d | u.d | – | – | – | – | –
7 | CCC/C=C/C(=O)O [trans-2-Hexenoic acid] | – | – | – | – | – | u.d | u.d | –
8 | CC/C=C\CCO [cis-3-Hexen-1-ol] | u.d | u.d | – | – | at low concentrations | u.d | u.d | –
9 | O=Cc1ccc(CO)o1 [5-(Hydroxymethyl)furfural] | – | – | u.d | u.d | – | u.d | u.d | –
10 | CCCCCCCCCCCCCCCC(=O)O [Hexadecanoic acid] | u.d | u.d | u.d | u.d | – | – | – | –
11 | CCCCCC=O [Hexanal] | u.d | – | – | – | – | u.d | u.d | binding affinity to SlitCSP11 (in words) [3]: poor affinities; Kd SlitCSP3 [2]: u.d; binding affinity to SlitCSP3 (in words) [2]: poor affinities
12 | CCCCN=C=S [Butyl isothiocyanate] | u.d | u.d | u.d | u.d | – | – | – | –
13 | CCCCCCCCCC#N [Decanenitrile] | u.d | u.d | u.d | u.d | poor affinities | u.d | u.d | binding affinity to SlitCSP11 (in words) [3]: poor affinities; binding affinity to SlitCSP3 (in words) [2]: poor affinities
14 | O=Cc1ccccc1 [Benzaldehyde] | – | – | – | – | – | – | – | IC50 [1]: 5.26 µM; Kd [1]: 7.47 µM
15 | CCc1ccco1 [2-Ethylfuran] | u.d | u.d | u.d | u.d | poor affinities | u.d | u.d | binding affinity to SlitCSP11 (in words) [3]: poor affinities; binding affinity to SlitCSP3 (in words) [2]: poor affinities
16 | N#Cc1ccccc1 [Benzonitrile] | u.d | u.d | u.d | u.d | poor affinities | u.d | u.d | binding affinity to SlitCSP11 (in words) [3]: poor affinities; binding affinity to SlitCSP3 (in words) [2]: poor affinities
17 | OCc1ccccc1 [Benzyl alcohol] | u.d | u.d | – | – | at low concentrations | – | – | –
